Common to all, as to type: biochemical
One assay deals with T1, human JAK2 (aa 826-1132) (Homo sapiens, UniProt O60674).
T1 construct: JAK2 (aa 826-1132); GST (N); purchased Carna Biosciences; host or cells: baculovirus expression system
Nature of the assay: In vitro JAK kinase assay (TR-FRET), JAK2. The note with it: catalytic domain GST-fusion; ATP 0.2 μM; poly (GT)-Biotin; 30 minutes at room temperature. The protocol:
(§1) Compounds were screened for their ability to inhibit JAK1, JAK2 and JAK3 using the assays as indicated below.
(§2) The catalytic domains of human JAK1 (aa 850-1154), JAK2 (aa 826-1132), JAK3 (aa 795-1124) and Tyk2 (aa 871-1187) were expressed as N-terminal GST-fusion proteins using a baculovirus expression system and were purchased from Carna Biosciences. The enzymatic activity was assayed using as substrate a biotinylated peptide, poly (GT)-Biotin (CisBio). The peptide concentration in the reactions was 60 nM for JAK1, […], 140 nM for JAK3 and 50 nM for Tyk2. The degree of phosphorylation was detected by TR-FRET (time-resolved fluorescence energy transfer).
(§3) IC50s of compounds were measured for each kinase in a reaction mixture containing the enzyme, ATP and the peptide in 8 mM MOPS (pH 7.0), 10 mM MgCl2, 0.05% […], 0.45 mg/ml BSA. The ATP concentration in the reactions was 3 μM for JAK1, 0.2 μM for JAK2, 0.6 μM for JAK3 and 1.8 μM for Tyk2. The enzymatic reactions took place for 30 minutes at room temperature. Then, the reactions were stopped with 20 μL of quench detection buffer (50 mM HEPES, 0.5 M KF, EDTA 0.25 M, 0.1% (w/v) BSA, pH 7.5) containing 0.115 μg/mL of anti-phosphoTyr (PT66)-Cryptate (CisBio) and a variable concentration of SA-XL665 (CisBio) to keep the SA-B ratio constant. Incubate for 3 h and read on Victor 2V spectrofluorometer (PerkinElmer) set to read fluorescence resonance energy transfer.
For orientation: TR-FRET usually uses a lanthanide donor and a delayed reading to cut background.

Another assay concerns the target T2, human JAK3 (aa 795-1124) (Homo sapiens, UniProt P52333).
T2 construct: JAK3 (aa 795-1124); GST (N); purchased Carna Biosciences; host or cells: baculovirus expression system
The experiment in a line: In vitro JAK kinase assay (TR-FRET), JAK3. Conditions: catalytic domain GST-fusion; ATP 0.6 μM; poly (GT)-Biotin 140 nM; 30 minutes at room temperature. The protocol:
as §1, §2, §3

The target of another assay is T3, human JAK1 (aa 850-1154) (Homo sapiens, UniProt P23458).
T3 construct: human JAK1 (aa 850-1154); GST (N); purchased Carna Biosciences; host or cells: baculovirus expression system
T3 sequence (P23458 850-1154): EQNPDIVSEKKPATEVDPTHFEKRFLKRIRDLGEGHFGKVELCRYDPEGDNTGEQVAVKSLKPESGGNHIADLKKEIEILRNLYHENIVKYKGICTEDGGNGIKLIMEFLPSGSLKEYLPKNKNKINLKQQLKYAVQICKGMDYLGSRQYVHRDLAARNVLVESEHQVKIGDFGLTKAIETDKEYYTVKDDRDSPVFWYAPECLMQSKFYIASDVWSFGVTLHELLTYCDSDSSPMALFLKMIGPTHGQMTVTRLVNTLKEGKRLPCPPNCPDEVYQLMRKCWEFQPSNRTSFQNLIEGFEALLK
The experiment in a line: In vitro JAK kinase assay (TR-FRET), JAK1. The note with it: catalytic domain GST-fusion; ATP 3 μM; poly (GT)-Biotin 60 nM; 30 minutes at room temperature. The protocol:
as §1, §2, §3

The record followed here is patent publication US9133200B2, “Imidazo[1,2-b]pyridazine and imidazo[4,5-b]pyridine derivatives as JAK inhibitors” (Almirall, S.A., priority 2010, dated 2015).

T2 sequence (P52333 795-1124): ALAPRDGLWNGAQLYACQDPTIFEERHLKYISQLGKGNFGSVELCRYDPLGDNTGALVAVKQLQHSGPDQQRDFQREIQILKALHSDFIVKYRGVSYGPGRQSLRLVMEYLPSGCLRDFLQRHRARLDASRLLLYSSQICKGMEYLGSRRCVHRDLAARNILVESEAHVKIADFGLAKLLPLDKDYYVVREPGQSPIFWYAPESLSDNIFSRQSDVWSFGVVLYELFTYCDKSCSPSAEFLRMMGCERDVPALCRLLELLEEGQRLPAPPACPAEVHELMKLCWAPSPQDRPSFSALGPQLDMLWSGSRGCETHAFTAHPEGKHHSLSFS
T1 sequence (O60674 826-1132): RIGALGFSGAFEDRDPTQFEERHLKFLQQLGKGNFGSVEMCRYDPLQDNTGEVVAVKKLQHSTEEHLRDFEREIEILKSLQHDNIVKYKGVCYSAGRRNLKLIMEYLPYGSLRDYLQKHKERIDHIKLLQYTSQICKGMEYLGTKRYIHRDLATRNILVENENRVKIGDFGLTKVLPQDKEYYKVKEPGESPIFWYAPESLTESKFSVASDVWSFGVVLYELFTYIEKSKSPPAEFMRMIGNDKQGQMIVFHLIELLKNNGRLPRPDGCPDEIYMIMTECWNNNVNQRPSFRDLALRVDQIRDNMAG

On to `C[C@H](Nc1ccc2ncc(-c3ccc[nH]c3=O)n2n1)c1ncc(F)cn1` [Example 5, 3-(6-{[(1S)-1-(5-Fluoropyrimidin-2-yl)ethyl]amino}imidazo[1,2-b]pyridazin-3-yl)pyridin-2(1H)-one], for which the IC50 on human JAK2 (aa 826-1132), against human JAK3 (aa 795-1124) and at human JAK1 (aa 850-1154) was below 100 nM in each case.
Consider `N#CCC(=O)N1CCC[C@@H](Nc2ccc3ncc(-c4ccc[nH]c4=O)n3n2)C1` [Example 1, 3-Oxo-3-((3R)-3-{[3-(2-oxo-1,2-dihydropyridin-3-yl)imidazo[1,2-b]pyridazin-6-yl]amino}piperidin-1-yl)propanenitrile], for which the half-maximal inhibitory concentration (IC50) at human JAK2 (aa 826-1132), on human JAK3 (aa 795-1124) and against human JAK1 (aa 850-1154) was below 100 nM throughout.
For the compound `C[C@@H](Nc1ccc2ncc(-c3ccc[nH]c3=O)n2n1)c1ccc(F)cn1` [Example 4, 3-(6-{[(1R)-1-(5-Fluoropyridin-2-yl)ethyl]amino}imidazo[1,2-b]pyridazin-3-yl) pyridin-2(1H)-one], the IC50 against human JAK2 (aa 826-1132) is below 100 nM; on human JAK3 (aa 795-1124), below 100 nM; at human JAK1 (aa 850-1154), 100 to 1000 nM.
As for `Cc1cc2ncc(-c3ccc[nH]c3=O)n2nc1N[C@@H](C)c1ccc(F)cn1` [Example 9, 3-(6-{[(1S)-1-(5-Fluoropyridin-2-yl)ethyl]amino}-7-methylimidazo[1,2-b]pyridazin-3-yl)pyridin-2(1H)-one], the IC50 against human JAK2 (aa 826-1132), against human JAK3 (aa 795-1124) and against human JAK1 (aa 850-1154) was below 100 nM each time.
Regarding `C[C@H](Nc1ccc2ncc(-c3ccn[nH]c3=O)n2n1)c1ccccc1` [Example 6, 4-(6-{[(1S)-1-Phenylethyl]amino}imidazo[1,2-b]pyridazin-3-yl)pyridazin-3(2H)-one], the IC50 at human JAK2 (aa 826-1132) was below 100 nM; against human JAK3 (aa 795-1124), below 100 nM; at human JAK1 (aa 850-1154), 100 to 1000 nM.
On to `C[C@H](Nc1ccc2ncc(-c3cc(Cl)c[nH]c3=O)n2n1)c1ccc(F)cn1` [Example 8, 5-Chloro-3-(6-{[(1S)-1-(5-fluoropyridin-2-yl)ethyl]amino}imidazo[1,2-b]pyridazin-3-yl)pyridin-2(1H)-one], for which the concentration for half-maximal inhibition (IC50) against human JAK2 (aa 826-1132), against human JAK3 (aa 795-1124) and at human JAK1 (aa 850-1154) was below 100 nM in each case.
For `C[C@H](Nc1ccc2ncn(-c3cc(Cl)c[nH]c3=O)c2n1)c1ccc(F)cn1` [Example 13, 5-Chloro-3-(5-{[(1S)-1-(5-fluoropyridin-2-yl)ethyl]amino}-3H-imidazo[4,5-b]pyridin-3-yl)pyridin-2(1H)-one], the IC50 on human JAK2 (aa 826-1132), on human JAK3 (aa 795-1124) and against human JAK1 (aa 850-1154) was below 100 nM each time.

A word on the IC50: it is the concentration that inhibits the measured activity by half. A high value points to lower potency.
